In this experiment the test system is BDF1 mice, P388 leukemia ip, median survival T/C. The experiment is described as follows: NCI In Vivo Anticancer Drug Screen. Data for tumor model P388 Leukemia (intraperitoneal) in B6D2F1 (BDF1) mice. As to conditions: endpoint: median survival time, higher = longer survival. The essentials: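 Mice carrying the transplantable tumour receive compound or vehicle. Survival is followed in each arm, and the treated measure is divided by the vehicle measure.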

Setting [1] is: dose: 100.0 mg/kg/injection, schedule: Q04DX003 (ip), vehicle: saline with Tween-80.
[2] abbreviates: dose: 200.0 mg/kg/injection, schedule: Q04DX003 (ip), vehicle: saline with Tween-80.
[3] abbreviates: dose: 400.0 mg/kg/injection, schedule: Q04DX003 (ip), vehicle: saline with Tween-80.
[4] abbreviates: dose: 25.0 mg/kg/injection, schedule: Q01DX009 (ip), vehicle: saline with Tween-80.
Where [5] appears, read: dose: 50.0 mg/kg/injection, schedule: Q01DX009 (ip), vehicle: saline with Tween-80.
[6] abbreviates: dose: 100.0 mg/kg/injection, schedule: Q01DX009 (ip), vehicle: saline with Tween-80.
Where [7] appears, read: dose: 200.0 mg/kg/injection, schedule: Q01DX009 (ip), vehicle: saline with Tween-80.

12 compounds from PubChem BioAssay AID328 (DTP/NCI, 2004) can be followed below.

Values joined by “and” are separate entries in the source; they are usually repeats but may differ in a detail not shown here. Equal values may be shown once. Toxic doses and inconclusive results are not listed.

`c1ccc(CCN2CCC(CCc3c[nH]c4ccccc34)CC2)cc1`: the T/C reads like this: (dose: 12.5 mg/kg/injection, schedule: Q01DX010 (ip), vehicle: saline) 100 % of control; (dose: 25.0 mg/kg/injection, schedule: Q01DX010 (ip), vehicle: saline) 109 % of control; (dose: 50.0 mg/kg/injection, schedule: Q01DX010 (ip), vehicle: saline) 122 % of control; (dose: 100.0 mg/kg/injection, schedule: Q01DX010 (ip), vehicle: saline) 114 % of control.
For the compound `CCCCCCCC(=O)Nc1ccc(C)c(C)c1`, the T/C is 109 % of control under setting [1], 109 % of control under setting [2] and 109 % of control under setting [3].
Turning to `O=C1Nc2c(Cl)cc(Cl)cc2/C1=N/N=C/c1ccccc1O`, the T/C is 95 % of control (dose: 12.5 mg/kg/injection, schedule: Q01DX005 (ip), vehicle: saline with Tween-80); 95 % of control (dose: 25.0 mg/kg/injection, schedule: Q01DX005 (ip), vehicle: saline with Tween-80); 95 % of control (dose: 50.0 mg/kg/injection, schedule: Q01DX005 (ip), vehicle: saline with Tween-80).
As for `Cc1cccc(NC(=O)c2ccccc2Cl)c1C`, the T/C is, setting by setting: under setting [1], 109 % of control; under setting [2], 90 % of control; under setting [3], 90 % of control.
As to `CC(=O)OCC1OC(OC2=C(CC=C(Cl)Cl)C(=O)c3ccccc3C2=O)C(OC(C)=O)C(OC(C)=O)C1OC(C)=O` (configuration not stated), the T/C reads like this: under setting [4], 100 % of control; under setting [5], 100 % of control and 104 % of control; under setting [6], 100 % of control and 102 % of control; under setting [7], 117 % of control.
Consider `CC(=O)O[C@H]1C(=O)O[C@@H]2C[C@H]3C(C)=CC(=O)[C@@H](O)[C@]3(C)[C@H]3[C@@]4(O)OC[C@]32[C@@H]1[C@@H](C)[C@H]4O`, for which the T/C (dose: 0.13 mg/kg/injection, schedule: Q01DX010 (ip), vehicle: alcohol) was 227 % of control; the T/C (dose: 0.2 mg/kg/injection, schedule: Q01DX010 (ip), vehicle: alcohol) was 100 % of control; the T/C (dose: 0.4 mg/kg/injection, schedule: Q01DX010 (ip), vehicle: alcohol) was 150 % of control; the T/C (dose: 0.5 mg/kg/injection, schedule: Q01DX009 (ip), vehicle: saline with Tween-80) is 120 % of control; the T/C (dose: 0.6 mg/kg/injection, schedule: Q01DX010 (ip), vehicle: alcohol) was 166 % of control; the T/C (dose: 0.75 mg/kg/injection, schedule: Q01DX009 (ip), vehicle: saline) is 120 % of control. Also, the T/C was 110 % of control (dose: 0.75 mg/kg/injection, schedule: Q03HX008 (ip), vehicle: saline); 120 % of control (dose: 0.75 mg/kg/injection, schedule: Q03HX016 (ip), vehicle: saline); 100 % of control (dose: 1.0 mg/kg/injection, schedule: Q01DX009 (ip), vehicle: saline); 116 % of control (dose: 1.0 mg/kg/injection, schedule: Q01DX010 (ip), vehicle: other); 190 % of control (dose: 1.0 mg/kg/injection, schedule: Q01DX010 (ip), vehicle: saline); 100 % of control (dose: 1.5 mg/kg/injection, schedule: Q01DX005 (ip), vehicle: saline). For the same compound, the T/C is, setting by setting: (dose: 1.5 mg/kg/injection, schedule: Q03HX008 (ip), vehicle: saline) 110 % of control; (dose: 1.5 mg/kg/injection, schedule: Q03HX024 (ip), vehicle: saline) 110 % of control; (dose: 2.0 mg/kg/injection, schedule: Q01DX010 (ip), vehicle: alcohol) 120 % of control; (dose: 2.0 mg/kg/injection, schedule: Q01DX010 (ip), vehicle: other) 120 % of control; (dose: 2.0 mg/kg/injection, schedule: Q01DX010 (ip), vehicle: saline) 190 % of control; (dose: 3.0 mg/kg/injection, schedule: Q01DX005 (ip), vehicle: saline) 120 % of control. Further, the T/C runs as follows: (dose: 4.0 mg/kg/injection, schedule: Q01DX010 (ip), vehicle: alcohol) 120 % of control; (dose: 4.0 mg/kg/injection, schedule: Q01DX010 (ip), vehicle: saline) 190 % of control; (dose: 6.0 mg/kg/injection, schedule: Q01DX005 (ip), vehicle: saline) 100 % of control; (dose: 6.0 mg/kg/injection, schedule: Q01DX009 (ip), vehicle: saline) 90 % of control; (dose: 6.0 mg/kg/injection, schedule: Q01DX010 (ip), vehicle: alcohol) 213 % of control; (dose: 6.0 mg/kg/injection, schedule: Q04DX003 (ip), vehicle: saline) 95 % of control. In addition, the T/C (dose: 6.0 mg/kg/injection, schedule: Q08DX002 (ip), vehicle: saline) is 100 % of control; the T/C (dose: 8.0 mg/kg/injection, schedule: Q01DX009 (ip), vehicle: saline) is 116 % of control; the T/C (dose: 8.0 mg/kg/injection, schedule: Q01DX010 (ip), vehicle: other) was 158 % of control; the T/C (dose: 9.0 mg/kg/injection, schedule: Q01DX010 (ip), vehicle: alcohol) is 159 % of control; the T/C (dose: 12.0 mg/kg/injection, schedule: Q01DX001 (ip), vehicle: saline) was 110 % of control; the T/C (dose: 12.0 mg/kg/injection, schedule: Q01DX005 (ip), vehicle: saline) is 120 % of control. Further, the T/C runs as follows: (dose: 12.0 mg/kg/injection, schedule: Q08DX002 (ip), vehicle: saline) 95 % of control; (dose: 13.0 mg/kg/injection, schedule: Q01DX010 (ip), vehicle: alcohol) 213 % of control; (dose: 24.0 mg/kg/injection, schedule: Q04DX003 (ip), vehicle: saline) 100 % of control; (dose: 24.0 mg/kg/injection, schedule: Q08DX002 (ip), vehicle: saline) 100 % of control; (dose: 48.0 mg/kg/injection, schedule: Q04DX003 (ip), vehicle: saline) 100 % of control; (dose: 48.0 mg/kg/injection, schedule: Q08DX002 (ip), vehicle: saline) 100 % of control. Also, the T/C was 110 % of control (dose: 96.0 mg/kg/injection, schedule: Q01DX001 (ip), vehicle: saline); 100 % of control (dose: 96.0 mg/kg/injection, schedule: Q08DX002 (ip), vehicle: saline); 110 % of control (dose: 192.0 mg/kg/injection, schedule: Q01DX001 (ip), vehicle: saline); 111 % of control (dose: 57.0 micrograms/kg/injection, schedule: Q01DX010 (ip), vehicle: alcohol); 107 % of control (dose: 87.0 micrograms/kg/injection, schedule: Q01DX010 (ip), vehicle: alcohol).
For `CSC(N)=Nc1cccc2c1CCCC2`, the T/C is, setting by setting: (dose: 50.0 mg/kg/injection, schedule: Q04DX003 (ip), vehicle: saline) 108 % of control; (dose: 100.0 mg/kg/injection, schedule: Q04DX003 (ip), vehicle: saline) 108 % of control.
As to `S=C1NC2=C(CCC/C2=C\c2ccccc2)C(c2ccccc2)N1` (configuration not stated), the T/C by setting is: under setting [5], 91 % of control; under setting [6], 96 % of control.
Take `CCCCN(CCC#N)CCCC`: the T/C reads like this: (dose: 25.0 mg/kg/injection, schedule: Q04DX003 (ip), vehicle: saline with Tween-80) 100 % of control; (dose: 50.0 mg/kg/injection, schedule: Q04DX003 (ip), vehicle: saline with Tween-80) 100 % of control; under setting [1], 100 % of control.
In the case of `Cc1cc(N(C)C)c2ccc3cc4ccccc4cc3c2n1`, the T/C under setting [4] was 95 % of control; the T/C under setting [5] was 95 % of control and 114 % of control; the T/C under setting [6] is 92 % of control and 121 % of control.
Regarding `COc1ccc(CN2CCN(Cc3ccc(OC)c(OC)c3)C2c2ccc(OC)c(OC)c2)cc1OC`, the T/C reads like this: under setting [6], 109 % of control; under setting [1], 105 % of control; under setting [7], 100 % of control; under setting [2], 105 % of control; (dose: 400.0 mg/kg/injection, schedule: Q01DX009 (ip), vehicle: saline with Tween-80) 100 % of control; under setting [3], 95 % of control.
With `O=C1OC(c2ccccc2)=N/C1=C\c1cccc(Br)c1`, the T/C was 99 % of control (dose: 50.0 mg/kg/injection, schedule: Q04DX002 (ip), vehicle: saline with Tween-80); 105 % of control (dose: 100.0 mg/kg/injection, schedule: Q04DX002 (ip), vehicle: saline with Tween-80); 89 % of control (dose: 200.0 mg/kg/injection, schedule: Q04DX002 (ip), vehicle: saline with Tween-80).
